These results are taken from patent US20260256789A1, “METHODS FOR TREATMENT OF CANCER” (Frontier Medicines Corporation, priority 2022, published 2026).

SMILES strings stand for the structures. Where only a bound is given, the exact number is not on record here.

The target of this experiment is T1, KRAS G12C (GMPPNP-loaded) and cRAF Ras-binding domain (Homo sapiens, UniProt P01116, C118S/C51S/C80L/G12C).
T1 construct: truncated version comprising amino acids 1-169
T1 sequence (P01116 1-169 isoform P01116-2 G12C/C51S/C80L/C118S): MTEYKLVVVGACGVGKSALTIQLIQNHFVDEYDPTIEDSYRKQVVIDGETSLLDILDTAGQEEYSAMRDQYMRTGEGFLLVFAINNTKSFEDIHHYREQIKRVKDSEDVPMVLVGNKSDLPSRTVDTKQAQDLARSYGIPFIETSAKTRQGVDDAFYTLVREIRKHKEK
The experiment in a line: Inhibition of KRAS G12C and cRAF binding (AlphaScreen). To be noted: KRAS G12C preloaded with GTP analogue GMPPNP, 2 hours preincubation. In outline:
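AlphaScreen used biotin-AviTag KRAS G12C (Cys-light, aa 1-169; 0.5 nM), GMPPNP-loaded, preincubated 2 h with compound (top 50 μM, 1:3, 10 points, 2% DMSO) in pH 7.4 Hepes buffer with 10 μM GMPPNP. GST-cRAF RBD (aa 50-131; 0.75 nM) plus beads were then added for 60-90 min at room temperature, and IC50 came from a 4-parameter fit.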
`C=CC(=O)N1CC(CN(C)c2nc(OCC34CCCN3CCC4)nc3c2CC(C)C(c2nc(N)cc(C)c2C(F)(F)F)C3)C1` (centres unmarked) [Example 207] came in with an IC50 of at least 500 nM.
As for `CN(c1nc(OC[C@@]23CCCN2C[C@H](F)C3)nc2c(F)c(-c3cccc(Cl)c3C3CC3)ncc12)[C@@H]1CCN(C(=O)C#C[C@]2(C)CCCN2C)C1` [Example 208], the IC50 is 10 to 100 nM.
The figure for `C=CC(=O)N1CC[C@@H](N(C)c2nc(OC[C@@]34CCCN3C[C@H](F)C4)nc3c(F)c(-c4nccc5cccc(Cl)c45)ncc23)C1` [Example 209] is at least 500 nM; for `CO[C@H]1CCN(C/C=C/C(=O)N2CC[C@@H](N(C)c3nc(OC[C@@]45CCCN4C[C@H](F)C5)nc4c(F)c(-c5cccc(Cl)c5C5CC5)ncc34)C2)C1` [Example 210] it is 10 to 100 nM.
Next, `C=CC(=O)N1CC[C@@H](N(C)c2nc(OC[C@@]34CCCN3C[C@H](F)C4)nc3c(F)c(-c4nccc(C)c4C(F)(F)F)ncc23)C1` [Example 211]: at least 500 nM; `C=CC(=O)N1CC[C@@H](N(C)c2nc(OC[C@@]34CCCN3C[C@H](F)C4)nc3c(F)c(-c4cnn5cccc(F)c45)ncc23)C1` [Example 212]: at least 500 nM; `CN1CC[C@@H]1/C=C/C(=O)N1CC[C@@H](N(C)c2nc(OC[C@@]34CCCN3C[C@H](F)C4)nc3c(F)c(-c4cc(O)cc(Cl)c4C4CC4)ncc23)C1` [Example 213]: under 10 nM.
As to `CC(C)c1noc(/C=C/C(=O)N2CC[C@@H](N(C)c3nc(OC[C@@]45CCCN4C[C@H](F)C5)nc4c(F)c(-c5nc(N)ccc5OC(F)F)ncc34)C2)n1` [Example 214], the IC50 fell in the range of 10 to 100 nM.
With `CN(c1nc(OC[C@@]23CCCN2C[C@H](F)C3)nc2c(F)c(-c3cccc(Cl)c3C3CC3)ncc12)[C@@H]1CCN(C(=O)C#C[C@@]2(C)CCCN2)C1` [Example 215], the IC50 is under 10 nM.
The figure for `C#Cc1cccc2[nH]nc(-c3ncc4c(N(C)[C@@H]5CCN(C(=O)C=C)C5)nc(OC[C@@]56CCCN5C[C@H](F)C6)nc4c3F)c12` [Example 216] is at least 500 nM; for `C=CC(=O)N1CC[C@@H](N(C)c2nc(OC[C@@]34CCCN3C[C@H](F)C4)nc3c(F)c(-c4cccc(Cl)c4C(F)(F)F)ncc23)[C@H]1C` [Example 217] it is 10 to 100 nM.
The figure for `C=CC(=O)N1CC[C@@H](N(C)c2nc(OC[C@@]34CCCN3C[C@H](F)C4)nc3c(F)c(-c4c(O)cccc4C4CC4)ncc23)C1` [Example 218] is at least 500 nM; for `C=CC(=O)N1CC[C@@H](N(C)c2nc(OC[C@@]34CCCN3C[C@H](F)C4)nc3c(F)c(-c4cccn5cncc45)ncc23)C1` [Example 219] it is at least 500 nM.
As to `C=CC(=O)N1CC[C@@H](N(C)c2nc(OC[C@@]34CCCN3C[C@H](F)C4)nc3c(F)c(-c4cccc(F)c4C4CC4)ncc23)C1` [Example 220], the IC50 was at least 500 nM.
The figure for `Cc1nccc(/C=C/C(=O)N2CC[C@@H](N(C)c3nc(OC[C@@]45CCCN4C[C@H](F)C5)nc4c(F)c(-c5cccc(Cl)c5C5CC5)ncc34)C2)n1` [Example 221] is 100 to 500 nM.
For the compound `CO[C@@H]1CCN(C/C=C/C(=O)N2CC[C@@H](N(C)c3nc(OC[C@@]45CCCN4C[C@H](F)C5)nc4c(F)c(-c5cccc(Cl)c5C5CC5)ncc34)C2)C1` [Example 222], the IC50 was in the range of 100 to 500 nM.
Next, `CN(c1nc(OC[C@@]23CCCN2C[C@H](F)C3)nc2c(F)c(-c3cccc(Cl)c3C3CC3)ncc12)[C@@H]1CCN(C(=O)C#CCN2CCOCC2)C1` [Example 223]: 100 to 500 nM.
The compound `C=CC(=O)N1CCC(N(C)c2nc(OC[C@@]34CCCN3C[C@H](F)C4)nc3c(F)c(-c4n[nH]c5cccc(Cl)c45)ncc23)C1` (some centres unmarked) [Example 224] showed an IC50 of at least 500 nM.
`C=CC(=O)N1CC[C@@H](N(C)C2=c3cnc(-c4c[nH]nc4Cl)c(F)c3=NC(OC[C@@]34CCCN3C[C@H](F)C4)N2)C1` (some centres unmarked) [Example 225] yielded a concentration for half-maximal inhibition (IC50) of at least 500 nM.
The figure for `CN1CC[C@@H]1/C=C/C(=O)N1CC[C@@H](N(C)c2nc(OC[C@@]34CCCN3C[C@H](F)C4)nc3c(F)c(-c4cccc(Cl)c4C4CC4)ncc23)C1` [Example 227] is under 10 nM.

The IC50 is the concentration at which inhibition is half-maximal. Higher therefore signals lower potency.
